Measurements reported in ChEMBL document CHEMBL1159089, “Synthesis, antimalarial and antitubercular activity of acetylenic chalcones” (Bioorg Med Chem Lett, 2010).
Values after ≈ are worked out from the molar mass of the structure shown.

Key:
Plasmodium falciparum [1] = assay: Antimicrobial activity against chloroquine-resistant Plasmodium falciparum W2; type: functional, organism-based
[2] = system: Mycobacterium tuberculosis; assay: Antitubercular activity against Mycobacterium tuberculosis H37Rv by microplate Alamar blue assay; type: functional
Plasmodium falciparum [3] = assay: Antimicrobial activity against chloroquine-sensitive Plasmodium falciparum D10; type: functional, organism-based
Falcipain 2 = target: T1, Falcipain 2 (Plasmodium falciparum, UniProt Q9N6S8); assay: Inhibition of Plasmodium falciparum falcipain-2
T1 sequence (Q9N6S8 whole entry): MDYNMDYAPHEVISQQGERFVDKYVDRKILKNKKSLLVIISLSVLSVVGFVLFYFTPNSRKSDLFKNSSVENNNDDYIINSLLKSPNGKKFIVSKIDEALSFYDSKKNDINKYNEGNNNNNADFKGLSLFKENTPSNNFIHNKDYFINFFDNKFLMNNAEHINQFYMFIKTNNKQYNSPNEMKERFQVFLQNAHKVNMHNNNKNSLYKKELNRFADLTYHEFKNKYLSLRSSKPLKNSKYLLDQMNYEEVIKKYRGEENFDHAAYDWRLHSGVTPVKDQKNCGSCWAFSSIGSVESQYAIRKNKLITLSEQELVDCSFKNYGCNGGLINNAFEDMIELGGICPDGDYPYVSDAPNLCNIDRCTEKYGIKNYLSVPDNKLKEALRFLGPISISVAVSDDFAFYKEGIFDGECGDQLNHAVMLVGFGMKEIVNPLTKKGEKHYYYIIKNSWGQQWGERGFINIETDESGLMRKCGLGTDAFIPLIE

[4] = system: Mycobacterium tuberculosis; assay: Antitubercular activity against Mycobacterium tuberculosis H37Rv by low-oxygen-recovery assay; type: functional

Row | SMILES | IC50 (Plasmodium falciparum [1]) [µM] | MIC [2] [µM] | IC50 (Plasmodium falciparum [3]) [µM] | IC50 (Falcipain 2) [µM] | MIC [4] [µM]
1 | C#CCOc1ccc(C(=O)/C=C/c2ccc(OC)c(OC)c2OC)cc1OC | 6.7 | > 128 | 4.1 |  | 
2 | C#CCOc1ccc(C(=O)/C=C/c2ccc(OC)cc2OC)cc1OC | 9.7 | > 128 | 20 |  | 
3 | C#CCOc1ccc(C(=O)/C=C/c2ccc(OC)c(OC)c2OC)cc1 | > 20 | > 128 | 4.43 | > 100 | 
4 | C#CCOc1ccccc1/C=C/C(=O)c1ccc(OC)cc1OC | > 20 | 59.1 (≈ 19.1 µg/mL) | 8 | > 100 | 14.9 (≈ 4.8 µg/mL)
5 | C#CCOc1cccc(C(=O)/C=C/c2ccc(OC)cc2OC)c1 | > 20 | > 128 | > 100 | > 100 | 
6 | C#CCOc1cccc(C(=O)/C=C/c2ccc(OC)cc2)c1 | > 20 | 51.2 (≈ 15 µg/mL) | > 100 | > 100 | > 128
7 | C#CCOc1ccc(/C=C/C(=O)c2ccc(OC)cc2OC)cc1OC | 3.8 | > 128 | 3.4 |  | 
8 | C#CCOc1cccc(/C=C/C(=O)c2ccc(OC)cc2OC)c1 | > 20 | 54.9 (≈ 17.7 µg/mL) | 7.57 | > 100 | 26.1 (≈ 8.41 µg/mL)
9 | C#CCOc1ccccc1/C=C/C(=O)c1ccc(OC)cc1 | > 20 | 47.5 (≈ 13.9 µg/mL) | > 100 | > 100 | 50.7 (≈ 14.8 µg/mL)
10 | C#CCOc1cccc(/C=C/C(=O)c2ccc(OC)cc2)c1 | > 20 | 40 (≈ 11.7 µg/mL) | 11.6 | > 100 | 31.7 (≈ 9.27 µg/mL)
11 | C#CCOc1ccc(C(=O)/C=C/c2ccc(OC)cc2OC)cc1 | > 20 | 31 (≈ 9.99 µg/mL) | > 100 | > 100 | 108 (≈ 34.8 µg/mL)
12 | C#CCOc1ccc(/C=C/C(=O)c2ccc(OC)cc2)cc1 | > 20 | > 128 | > 100 | > 100 | 
13 | C#CCOc1ccc(C(=O)/C=C/c2ccc(OC)cc2)cc1 | > 20 | > 128 | 16.5 | > 100 | 
14 | C#CCOc1ccccc1C(=O)/C=C/c1ccc(OC)cc1OC | > 20 | 53.7 (≈ 17.3 µg/mL) | 18.9 | > 100 | 62.8 (≈ 20.2 µg/mL)
15 | C#CCOc1ccc(/C=C/C(=O)c2ccc(OC)c(OC)c2OC)cc1OC | 7 | 109 (≈ 41.7 µg/mL) | 7.7 |  | 
16 | C#CCOc1ccccc1/C=C/C(=O)c1ccc(OC)c(OC)c1OC | > 20 | 61.9 (≈ 21.8 µg/mL) | 50.6 | > 100 | 28.6 (≈ 10.1 µg/mL)
17 | C#CCOc1ccc(/C=C/C(=O)c2ccc(OC)c(OC)c2OC)cc1 | > 20 | > 128 | 13.3 | > 100 | 
18 | CC(C)C[C@H](NC(=O)[C@H]1O[C@@H]1C(=O)O)C(=O)NCCCCN=C(N)N [E-64] |  |  |  | 0.047 | 
19 | C#CCOc1ccc(/C=C/C(=O)c2ccc(OC)cc2OC)cc1 | > 20 | > 128 | 54.8 | > 100 | 
20 | O=[N+]([O-])c1cn2c(n1)OC[C@@H](OCc1ccc(OC(F)(F)F)cc1)C2 [PRETOMANID] |  | 0.16 (≈ 0.0575 µg/mL) |  |  | 3.3 (≈ 1.19 µg/mL)
21 | C#CCOc1cccc(C(=O)/C=C/c2ccc(OC)c(OC)c2OC)c1 | > 20 | 58.7 (≈ 20.7 µg/mL) | 33 | > 100 | 29.7 (≈ 10.5 µg/mL)
22 | C#CCOc1ccc(/C=C/C(=O)c2ccc(OC)cc2)cc1OC | 8.4 | > 128 | 9.7 |  | 
23 | COc1c(N2C[C@@H]3CCCN[C@@H]3C2)c(F)cc2c(=O)c(C(=O)O)cn(C3CC3)c12 [MOXIFLOXACIN] |  | 0.29 (≈ 0.116 µg/mL) |  |  | 31.1 (≈ 12.5 µg/mL)
24 | C#CCOc1ccccc1C(=O)/C=C/c1ccc(OC)c(OC)c1OC | > 20 | 98.7 (≈ 34.8 µg/mL) | > 100 | > 100 | 46.1 (≈ 16.2 µg/mL)
25 | C#CCOc1ccccc1C(=O)/C=C/c1ccc(OC)cc1 | > 20 | 31.1 (≈ 9.09 µg/mL) | > 100 | > 100 | 56.7 (≈ 16.6 µg/mL)
26 | C#CCOc1cccc(/C=C/C(=O)c2ccc(OC)c(OC)c2OC)c1 | > 20 | 54 (≈ 19 µg/mL) | > 100 | > 19 | 13.1 (≈ 4.62 µg/mL)
27 | CO[C@H]1/C=C/O[C@@]2(C)Oc3c(C)c(O)c4c(O)c(c(/C=N/N5CCN(C)CC5)c(O)c4c3C2=O)NC(=O)/C(C)=C\C=C\[C@H](C)[C@H](O)[C@@H](C)[C@@H](O)[C@@H](C)[C@H](OC(C)=O)[C@@H]1C [RIFAMPIN] |  | 0.05 (≈ 0.0411 µg/mL) |  |  | 2.4 (≈ 1.98 µg/mL)
28 | NNC(=O)c1ccncc1 [ISONIAZID] |  | 0.37 (≈ 0.0507 µg/mL) |  |  | > 128
